Laboratory results from patent US20230024283A1, “HERBICIDAL COMPOUNDS” (SYNGENTA CROP PROTECTION AG, priority 2020, published 2023).

Key:
Assay in all cases: Post-emergence herbicidal glasshouse test
Format in all cases: in vivo
Settings in all cases: post-emergence spray, evaluated after 13 days, five-point scale
[1] = tested on: Abutilon theophrasti (ABUTH)
Protocol: (§1) Seeds of a variety of test species are sown in standard soil in pots (Ipomoea hederacea (IPOHE), Abutilon theophrasti (ABUTH), Amaranthus retoflexus (AMARE), Echinochloa crus-galli (ECHCG), Setaria faberi (SETFA)). After 8 days cultivation under controlled conditions in a glasshouse (at 24/16° C., day/night; 14 hours light; 65% humidity), the plants are sprayed with an aqueous spray solution derived from the formulation of the technical active ingredient in acetone / water (50:50) solution containing 0.5% Tween 20 (polyoxyethelyene sorbitan monolaurate, CAS RN 9005-64-5). Compounds are applied at 1000 g/ha unless otherwise stated. The test plants are then grown in a glasshouse under controlled conditions in a glasshouse (at 24/16° C., day/night; 14 hours light; 65% humidity) and watered twice daily. After 13 days the test is evaluated for the percentage damage caused to the plant. The biological activities are shown in the following table on a five-point scale (5=81-100%; 4=61-80%; 3=41-60%; 2=21-40%; 1=0-20%).

[2] = tested on: Amaranthus retoflexus (AMARE)
Protocol: as §1

[3] = tested on: Echinochloa crus-galli (ECHCG)
Protocol: as §1

[4] = tested on: Ipomoea hederacea (IPOHE)
Protocol: as §1

Setaria faberi (SETFA) = tested on: Setaria faberi (SETFA)
Protocol: as §1

| Structure (SMILES) | percentage damage caused to the plant, ABUTH ([1]; 1000 g/ha) | percentage damage caused to the plant, AMARE ([2]; 1000 g/ha) | percentage damage caused to the plant, ECHCG ([3]; 1000 g/ha) | percentage damage caused to the plant, IPOHE ([4]; 1000 g/ha) | percentage damage caused to the plant, SETFA (Setaria faberi (SETFA); 1000 g/ha) | percentage damage caused to the plant, ABUTH ([1]; applied at 500 gai/ha) | percentage damage caused to the plant, AMARE ([2]; applied at 500 gai/ha) | percentage damage caused to the plant, ECHCG ([3]; applied at 500 gai/ha) | percentage damage caused to the plant, IPOHE ([4]; applied at 500 gai/ha) | percentage damage caused to the plant, SETFA (Setaria faberi (SETFA); applied at 500 gai/ha) |
| --- | --- | --- | --- | --- | --- | --- | --- | --- | --- | --- |
| N#Cc1cc(Br)c(O)c(-c2ccccc2)c1 [Compound 1.047] | 5 (5=81-100%) | 5 (5=81-100%) | 1 (1=0-20%) | 3 (3=41-60%) | 2 (2=21-40%) |  |  |  |  |  |
| N#Cc1cc(OC(F)(F)F)c(O)c(-c2cccc(F)c2)c1 [Compound 1.002] | 4 (4=61-80%) | 5 (5=81-100%) | 3 (3=41-60%) | 5 (5=81-100%) | 2 (2=21-40%) |  |  |  |  |  |
| N#Cc1cc(Br)c(O)c(-c2ccc(C(F)(F)F)c(C(F)(F)F)c2)c1 [Compound 1.008] | 2 (2=21-40%) | 5 (5=81-100%) |  | 2 (2=21-40%) | 4 (4=61-80%) |  |  |  |  |  |
| N#Cc1cc(-c2cc(F)c(F)c(F)c2)c(O)c(C(F)(F)F)c1 [Compound 1.182] | 4 (4=61-80%) | 5 (5=81-100%) | 1 (1=0-20%) | 5 (5=81-100%) | 1 (1=0-20%) |  |  |  |  |  |
| N#Cc1cccc(-c2cc(C#N)cc(Br)c2O)c1 [Compound 1.053] | 2 (2=21-40%) | 5 (5=81-100%) | 1 (1=0-20%) | 3 (3=41-60%) | 1 (1=0-20%) |  |  |  |  |  |
| Cn1nc(-c2cc(C#N)cc(Br)c2O)cc1C(F)(F)F [Compound 1.007, 3-bromo-4-hydroxy-5-[1-methyl-5-(trifluoromethyl)pyrazol-3-yl]benzonitrile] | 2 (2=21-40%) | 5 (5=81-100%) |  | 3 (3=41-60%) | 1 (1=0-20%) |  |  |  |  |  |
| N#Cc1cc(Br)c(O)c(-c2cncnc2)c1 [Compound 1.044] | 5 (5=81-100%) | 5 (5=81-100%) | 2 (2=21-40%) | 1 (1=0-20%) | 3 (3=41-60%) |  |  |  |  |  |
| N#Cc1cc(Br)c(O)c(-c2ccc(F)c(F)c2)c1 [Compound 1.130] | 5 (5=81-100%) | 5 (5=81-100%) | 1 (1=0-20%) | 2 (2=21-40%) | 1 (1=0-20%) |  |  |  |  |  |
| N#Cc1cc(Br)c(O)c(-c2cncc(F)c2)c1 [Compound 1.052] | 5 (5=81-100%) | 5 (5=81-100%) | 1 (1=0-20%) | 1 (1=0-20%) | 3 (3=41-60%) |  |  |  |  |  |
| CC(=O)Oc1c(-c2cccc(F)c2)cc(C#N)cc1C(F)(F)F [Compound 2.002] | 5 (5=81-100%) | 5 (5=81-100%) | 4 (4=61-80%) | 5 (5=81-100%) | 1 (1=0-20%) |  |  |  |  |  |
| N#Cc1cc(Br)c(O)c(-c2cccs2)c1 [Compound 1.134] | 4 (4=61-80%) | 4 (4=61-80%) | 1 (1=0-20%) | 4 (4=61-80%) | 1 (1=0-20%) |  |  |  |  |  |
| N#Cc1cc(-c2ccnc(C(F)(F)F)c2)c(O)c(C(F)(F)F)c1 [Compound 1.158] | 1 (1=0-20%) | 4 (4=61-80%) | 1 (1=0-20%) | 2 (2=21-40%) | 1 (1=0-20%) |  |  |  |  |  |
| N#Cc1cc(Br)c(O)c(-c2ccc(C(F)(F)F)cc2)c1 [Compound 1.058] | 1 (1=0-20%) | 5 (5=81-100%) | 2 (2=21-40%) | 2 (2=21-40%) | 3 (3=41-60%) |  |  |  |  |  |
| N#Cc1cc(-c2csc(C(F)(F)F)n2)c(O)c(C(F)(F)F)c1 [Compound 1.225] |  | 5 (5=81-100%) |  |  |  |  |  |  |  |  |
| N#Cc1cccc(-c2cc(C#N)cc(C(F)(F)F)c2O)c1 [Compound 1.145] |  |  |  |  |  | 1 (1=0-20%) | 1 (1=0-20%) | 1 (1=0-20%) | 3 (3=41-60%) | 1 (1=0-20%) |
| N#Cc1cc(Cl)c(O)c(-n2cc(C(F)(F)F)cn2)c1 [Compound 1.001, 3-chloro-4-hydroxy-5-[4-(trifluoromethyl)pyrazol-1-yl]benzonitrile] | 5 (5=81-100%) | 4 (4=61-80%) |  | 1 (1=0-20%) | 4 (4=61-80%) |  |  |  |  |  |
| N#Cc1cc(Br)c(O)c(-c2cccc(Br)c2)c1 [Compound 1.061] | 3 (3=41-60%) | 5 (5=81-100%) | 1 (1=0-20%) | 3 (3=41-60%) | 1 (1=0-20%) |  |  |  |  |  |
| N#Cc1cc(-c2cccc(OC(F)(F)F)c2)c(O)c(C(F)(F)F)c1 [Compound 1.165] | 1 (1=0-20%) | 3 (3=41-60%) | 1 (1=0-20%) | 4 (4=61-80%) | 1 (1=0-20%) |  |  |  |  |  |
| N#Cc1cc(-n2cc(F)cn2)c(O)c(C(F)(F)F)c1 [Compound 1.186] | 5 (5=81-100%) | 2 (2=21-40%) | 1 (1=0-20%) | 4 (4=61-80%) | 1 (1=0-20%) |  |  |  |  |  |
| N#Cc1cc(Br)c(O)c(-c2cc(F)cc(C(F)(F)F)c2)c1 [Compound 1.027] | 4 (4=61-80%) | 5 (5=81-100%) |  | 3 (3=41-60%) | 4 (4=61-80%) |  |  |  |  |  |
| N#Cc1cc(-n2cc(Cl)c(C3CC3)n2)c(O)c(C(F)(F)F)c1 [Compound 1.259] | 3 (3=41-60%) | 5 (5=81-100%) | 2 (2=21-40%) | 5 (5=81-100%) | 2 (2=21-40%) |  |  |  |  |  |
| N#Cc1cc(F)cc(-c2cc(C#N)cc(Br)c2O)c1 [Compound 1.032] | 4 (4=61-80%) | 5 (5=81-100%) |  | 3 (3=41-60%) | 4 (4=61-80%) |  |  |  |  |  |
| N#Cc1cc(Br)c(O)c(-c2cc(F)cc(Cl)c2)c1 [Compound 1.034] | 4 (4=61-80%) | 4 (4=61-80%) |  |  |  |  |  |  |  |  |
| COc1cc(-c2cc(C#N)cc(Br)c2O)cc(C(F)(F)F)n1 [Compound 1.009] | 2 (2=21-40%) | 4 (4=61-80%) |  | 2 (2=21-40%) | 2 (2=21-40%) |  |  |  |  |  |
